Experimental data from patent US12133915B2, “Method of treating epilepsy” (ALEXZA PHARMACEUTICALS, INC., priority 2016, dated 2024).

Legend:
[1] = test system: patients with photosensitive epilepsy; experiment: Sedation by visual analogue scale (VAS), Phase 2a study; format: in vivo, human
Protocol: (§1) Patients at least 18 years old with photosensitive epilepsy at 3 sites were tested on a baseline day, and then received in randomized order either inhaled placebo (on 2 days) or 0.5, 1 or 2 mg inhaled alprazolam delivered using a hand-held inhaled alprazolam device. Study days were separated by at least 1 week. Presence (and degree) of photosensitivity was measured predose, then at 2 min, 10 min, 30 min, 1, 2, 4 and 6 hours post-dose. Plasma concentration of study drug was measured at each time point. Sedation was assessed at each time point using the 100-mm linear visual analogue scale (VAS).
(§2) Secondary study endpoints included assessment of sedation using two visual analogue scales (VAS); correlation of plasma concentrations of inhaled alprazolam with PD effects on the SPR range; correlation of plasma concentrations of inhaled alprazolam with PD effects on sedation; and assessment of adverse events and changes in the neurological examination.
Assessment of the sedation using 2 visual analogue scales was made. […] A correlation of plasma concentrations of inhaled alprazolam with pharmacodynamic effects on sedation was made. […] Maximum sedation occurred within about two minutes of administration of alprazolam. Clinical observations support early onset of sedation at 30 seconds.

[2] = Aerosol particle size distribution by Next Generation Pharmaceutical Impactor (NGI); format: physicochemical; details: condensation aerosol, FIG. 4
Description: At least 80% by weight of the alprazolam aerosol particles have a size less than 5 microns, preferably at least 90% by weight of the alprazolam aerosol particles have a size less than 5 microns. At least 50% by weight of the alprazolam aerosol particles have a size less than 2 microns, preferably at least 50% by weight of the alprazolam aerosol particles have a size less than 1 micron. The Next Generation Pharmaceutical Impactor (NGI) was used to determine the particle size distribution.

[3] = Pharmacokinetic study in dogs, intravenous or inhalation administration; details: dog, in vivo
Description: In a pharmacokinetic (PK) study in dogs, alprazolam PK was profiled following either intravenous or inhalation administration.

dogs [4] = experiment: 5-day exploratory inhalation toxicity study in dogs; format: in vivo; details: 5-day inhalation
Protocol: In a 5-day exploratory inhalation toxicity study in dogs, the no-observed-adverse-effect level was 1.5 mg/kg/day for treatment-related histopathological findings.

dogs [5] = experiment: Cardiovascular and respiratory safety study in dogs, intravenous dosing; format: in vivo
Protocol: However, these changes were within normal ranges and not considered biologically significant. The plasma concentration of alprazolam associated with modest cardiovascular or respiratory effects exceeded 900 ng/mL and would not be expected to induce any significant changes at the range of doses planned considered for clinical studies (0.5 to 2.0 mg).

[6] = test system: patients with photosensitive epilepsy; experiment: Adverse events and tolerability, Phase 2a study; format: in vivo, human; details: for Cough, subjects with adverse event / Dizziness, subjects with adverse event / Dysgeusia, subjects with adverse event / Oral Dysaesthesia, subjects with adverse event / Sedation/somnolence, subjects with adverse event: N = 5
Description: as §2
An assessment of adverse events and changes in the neurological examination were made. The safety profile was consistent with oral alprazolam.

[7] = Plasma concentration of alprazolam in phase 1 and phase 2a clinical trials; format: in vivo, human
Protocol: as §1
FIGS. 5A and 5B show graphs of the mean plasma concentration of alprazolam in phase 1 and phase 2a clinical trials respectively. The graphs indicate a rapid uptake of alprazolam into the plasma after […] administration of the condensation aerosol. […] Mean peak plasma concentration occurred one to two minutes after administration of the alprazolam […] aerosol.

[8] = cited from earlier work
cytochrome P450 = experiment: In vitro cytochrome P450 inhibition potential; format: in vitro ADME; details: maximum alprazolam concentration tested
Description: (§3) In vitro drug transporter and cytochrome P450 inhibition potential were also studied.

[9] = test system: patients with photosensitive epilepsy (IPS-induced photoparoxysmal EEG response); experiment: Intermittent photic stimulation (IPS) photosensitivity model, Phase 2a proof-of-concept study; format: in vivo, human
Protocol: Example 1 evaluated the ability of inhaled alprazolam to rapidly suppress photosensitivity in a double blind placebo-controlled crossover proof of concept study. This study was an in-clinic, randomized, placebo-controlled, double-blind design, 5-way crossover study design, which allowed for small patient size. Epilepsy patients were evaluated using an Intermittent Photic Stimulation model, allowing for screening for antiepileptic effects without triggering seizures or convulsive responses. Three doses of alprazolam were investigated along with placebo (twice) in 5 subjects.
In patients with photosensitive epilepsy, intermittent photic stimulation was used to elicit generalized epileptiform EEG activity. The subject is exposed to certain frequency of light stimulation (flash frequencies), and photosensitivity range measured. The model has been used to identify antiepileptic effects on a number of drugs.
The primary objectives of the study were to assess 1) the effects of inhaled alprazolam on the IPS-induced photoparoxysmal EEG response in patients with epilepsy, 2) the sedative properties of these doses in order to select maximally-effective dose with the least sedation for further clinical studies, and 3) overall safety. The primary endpoint was the change in the Standard Photosensitivity Range (SPR) in subjects receiving each dose of inhaled alprazolam.
as §1
The test subjects were exposed to intermittent photic stimulation (14 frequencies, from 2 to 60 Hz), starting with lowest frequency and increasing frequency stepwise until a photosensitivity response was elicited. The test was repeated with the highest frequency and decreased frequency. The results can be summarized in a quantitative measure known as the Standardized Photosensitive Range (SPR). The Maximum SPR is 14. In the example shown, SPR is 8. The Primary endpoint is reduction in mean SPR, which is an indication of antiseizure activity. Patients that have a relatively stable SPR were enrolled in the study to allow for small study size.

drug transporter = experiment: In vitro drug transporter inhibition potential; format: in vitro ADME; details: maximum alprazolam concentration tested
Description: as §3

dogs [10] = experiment: 28-day GLP inhalation toxicity study with 14-day recovery in dogs; details: 28-day inhalation
rat = experiment: Rat inhalation MTD study; format: in vivo
rats = experiment: 14-day inhalation toxicity study in rats; format: in vivo
Protocol: In the 14-day inhalation toxicity study in rats, the no-adverse-effect level was considered to be 10.3 mg/kg/day.

[11] = all treatment arms of the crossover (incl. placebo)

Cc1nnc2n1-c1ccc(Cl)cc1C(c1ccccc1)=NC2 [alprazolam, 8-chloro-1-methyl-6-phenyl-4H-[1,2,4]triazolo [4,3-α][1,4]-benzodiazepine]
sedation, relation to dose ([1]; 0.5, 1, 2 mg): dose related | time to maximum sedation (VAS) ([1]; after administration): two | early onset of sedation, clinical observations ([1]; in vivo): 30 s | onset of VAS (sedation) response ([1]; in vivo): less than two | mass median aerodynamic diameter (MMAD) of aerosol particles [2]: 1.2 to 1.8 microns | Tmax ([3]; inhaled or intranasal, inhalation): < 1 min | bioavailability ([3]; inhaled, inhalation versus intravenous): 85 to 96% | no-observed-adverse-effect level for treatment-related histopathological findings (dogs [4]): 1.5 mg/kg/day | plasma concentration associated with modest cardiovascular or respiratory effects (dogs [5]; intravenous): exceeded 900 ng/mL | heart rate (dogs [5]; intravenous over 5 sec): transient increase | respiratory rate (dogs [5]; intravenous over 5 sec): transient decrease | Cough, subjects with adverse event ([6]; 0.5 mg): 2 n | Dizziness, subjects with adverse event ([6]; 0.5 mg): 1 n | Dysgeusia, subjects with adverse event ([6]; 0.5 mg): 2 n | Oral Dysaesthesia, subjects with adverse event ([6]; 0.5 mg): 2 n | Sedation/somnolence, subjects with adverse event ([6]; 0.5 mg): 1 n | Cough, subjects with adverse event ([6]; 1 mg): 1 n | Dizziness, subjects with adverse event ([6]; 1 mg): 0 n | Dysgeusia, subjects with adverse event ([6]; 1 mg): 2 n | Oral Dysaesthesia, subjects with adverse event ([6]; 1 mg): 0 n | Sedation/somnolence, subjects with adverse event ([6]; 1 mg): 2 n | Cough, total number of subjects experiencing an event [6, 11]: 2 | Dizziness, total number of subjects experiencing an event [6, 11]: 1 | Dysgeusia, total number of subjects experiencing an event [6, 11]: 2 | Oral Dysaesthesia, total number of subjects experiencing an event [6, 11]: 2 | Sedation/somnolence, total number of subjects experiencing an event [6, 11]: 2 | serious adverse events ([6]; doses up to 2 mg, listed as inhaled alprazolam): no reported serious adverse events | tolerability of treatment ([6]; in vivo): well tolerated | PK analysis, plasma concentrations versus dose ([7]; 0.5, 1, 2 mg): dose proportionality | time of mean peak plasma concentration ([7]; after administration of condensation aerosol): one to two | rapid rise in alprazolam plasma levels, time ([7]; inhaled): less than 2 min | solubility in chloroform ([8]; chloroform): freely soluble | solubility in ethanol ([8]; ethanol): soluble | solubility in methanol ([8]; methanol): soluble | solubility in water ([8]; water): practically insoluble | cytochrome P450 inhibition (cytochrome P450): No inhibition | effect on photosensitivity ([9]; 1 mg and 2 mg doses): almost complete elimination of the photosensitivity | time reduction of SPR was maintained ([9]; after administration): at least six | change in mean standardized photosensitivity range (SPR) ([9]; all doses (0.5, 1, 2 mg inhaled)): decreased | time to maximal or near-maximal effect on SPR ([9]; all doses, post dose): ≤ 2 min | maximal decrease in SPR ([9]; at least at the earlier time points): approximately 5 steps | duration of effects on SPR ([9]; higher doses): 4 h | onset of SPR response ([9]; in vivo): less than two | time to suppression of epileptic activity / effects on EEG ([9]; patients with photosensitive epilepsy): ≤ 2 min | epileptiform activity in post-dose EEG traces ([9]; representative patient, FIG. 7B): complete abolishment of epileptiform activity | drug transporter inhibition (drug transporter): No inhibition | deaths during the study (dogs [10]): no deaths | immunogenic potential (dogs [10]): no immunoglobulin or hypersensitivity response | no-observed-effect level for histopathological findings (dogs [10]; females): 4.4 mg/kg/day | no-observed-effect level for histopathological findings (dogs [10]; males): 2.8 mg/kg/day | single inhaled dose well tolerated (rat): up to 10.8 mg/kg | no-adverse-effect level (rats): 10.3 mg/kg/day
